One series relates to metastatic UC. As to conditions: cited from earlier work; for long-term progression-free survival (PFS): at 5 years; for complete response (CR) rate / median overall survival (mOS) / overall response rate: first-line, phase 3.
A further series deals with advanced UC. As to conditions: vinflunine plus BSC, vs 1.5 months BSC alone, P = .001; cited from earlier work.
Series [1] concerns locally advanced or metastatic urothelial cancer. Nature of the series: Phase 2 trial: tumor response. The format is in vivo, patients.
Series [2] relates to patients with locally advanced or metastatic urothelial cancer. Briefly: Phase 2 trial: safety, adverse events. The format is in vivo.
The nature of series [3]: Phase 2 trial: plasma pharmacokinetics. In kind it is in vivo, patients. As to conditions: for Tmax: first 2-hour intravenous infusion of 300 mg.
The test system of another series is UC cell lines. As to conditions: cited from earlier work.
In the next series the test system is solid tumors. As to conditions: cited from earlier work.
The subject of another series is urothelial cancer. As to conditions: cited from earlier work.
Where [4] appears, read: post hoc subgroup: disease progression >6 months after most recent chemotherapy.
Where [5] appears, read: post hoc subgroup: disease progression ≤6 months after most recent chemotherapy.
The mark [6] stands for this setting: subgroup: patients who did not escalate.
[7] abbreviates: subgroup: patients who escalated to volasertib 350 mg.

In general, AUC(0-inf) refers to the area under the concentration-time curve extrapolated to infinity. Read a low AUC(0-inf) as low exposure. By Cmax is commonly meant the highest concentration seen after dosing. For orientation: MRT means a mean duration of stay, worked out from the concentration-time curve. One may read the Vd as a proportionality between amount in the body and measured concentration, not a real space. A higher Vd goes with wide distribution into tissue. As a reminder, the clearance is the rate of elimination divided by the concentration. Low readings indicate inefficient removal, high ones efficient removal. One may read the half-life as the time in which the quantity being followed falls by half. Read a low half-life as fast loss. What is called Tmax is the time from dosing to the highest level.

Where “and” joins values, the source holds several entries; their conditions need not be identical. Equal values may be shown once.

Turning to “methotrexate, vinblastine, doxorubicin, and cisplatin [MVAC]”, in the series on metastatic UC, the “long-term progression-free survival (PFS)” value is reported as 11.3%, the “complete response (CR) rate” value was “approximately 12%”, the “median overall survival (mOS)” value is given as 14.8 months and the overall response rate is 46%.

Turning to `CC[C@]12C=CCN3CC[C@@]4(c5cc([C@@]6(C(=O)OC)C[C@@H]7C[C@@H](C(C)(F)F)CN(Cc8c6[nH]c6ccccc86)C7)c(OC)cc5N(C)[C@H]4[C@@](O)(C(=O)OC)[C@@H]1OC(C)=O)[C@@H]32` [Vinflunine, vinflunine], in the series on advanced UC, the “median PFS (mPFS)” value is on record as 3.0 months.

Consider `CC[C@@H]1C(=O)N(C)c2cnc(Nc3ccc(C(=O)N[C@H]4CC[C@H](N5CCN(CC6CC6)CC5)CC4)cc3OC)nc2N1C(C)C` [Volasertib], for which, in series [1] (N = 50), the “Disease control: PR + SD” value was 20 (40) No. of patients (%), the “OS rate at 3 mo” value was found to be 77.2%, the “OS rate at 6 mo” value is on record as 55.5% and the “OS: Median [95% CI]” value was 8.5 [3.9-12.1] mo. Moreover, in series [1] (N = 50), the “PFS rate at 3 mo” value is 32%, the “PFS rate at 6 mo” value is 20%, the “PFS: Median [95% CI]” value is 6.1 [5.6-11.1] wk and the “patients with partial response” value stood at 14%. In addition, in series [1] (N = 50), the “patients with stable disease” value was found to be 26%. Further, in series [1] (best overall response, N = 50), the “Response: SD” value is reported as 13 (26) No. of patients (%). Further, the “patients who achieved a PR as best overall response” value in series [1] (final analysis, N = 50) is listed as 7 patients. For the same compound, in series [1] (final analysis, N = 50, all PRs), the overall response rate stood at 14%. In addition, in series [1] (in vivo), the “Duration of disease control, PR or SD: Median” value is reported as 27.0 wk and the “Duration of disease control, PR or SD: range” value is 10.1-77.3 wk. Further, in series [1] (of the first 20 patients who completed 4 treatment cycles), the “patients with PR at preplanned interim efficacy analysis” value is listed as 2 patients. In series [1] (setting [4]), this compound returned a mPFS of 10.1 weeks and a response rate of 15%. In series [1] (setting [5]), this compound showed a mPFS of 5.6 weeks and a response rate of 14%. For the same compound, the “Duration of PR: range” value in series [1] (responders) was 29.1-77.3 wk. In series [1] (setting [6]), the “PR / response rate” value was 7.4% and 7%; the mOS is 5.8 months; the mPFS was 6.0 weeks and 6 weeks. In series [1] (setting [7]), the “PR / response rate” value is 21.7% and 22%; the mOS stood at 10.6 months; the mPFS is recorded as 11.1 weeks. For the same compound, in series [2] (human, in vivo), the “Adverse event leading to dose reduction: Diarrhea” value was 1 (2) No. of Patients (%), the “Adverse event leading to dose reduction: ECG: Prolonged QT” value is 1 (2) No. of Patients (%), the “Adverse event leading to dose reduction: Fatigue” value is 1 (2) No. of Patients (%) and the “Adverse event leading to dose reduction: Nausea” value is reported as 1 (2) No. of Patients (%). In series [2] (human, in vivo), the “Adverse event leading to dose reduction: Neutropenia” value was 2 (4) No. of Patients (%); the “Adverse event leading to dose reduction: Thrombocytopenia” value is listed as 3 (6) No. of Patients (%); the “febrile neutropenia (grade 3)” value is listed as 1 episode; the “grade 3 and 4 anemia” value stood at 16%. Also, in series [2] (human, in vivo), the “grade 3 and 4 neutropenia” value turned out to be 28%; the “grade 3 and 4 thrombocytopenia” value was found to be 20%; the “patients with dose reductions because of unacceptable toxicities in cycle 1” value came to 4 patients; the “patients with dose reductions because of unacceptable toxicities, overall” value was 14%. Further, the “treatment discontinuation because of AE” value in series [2] (human, in vivo) worked out at 1 n. Also, in series [2] (in vivo), the “clinically relevant side effect such as arrhythmias or cardiac dysfunction” value is “No clinically relevant side effect”, the cumulative toxicity entry is on record as “No cumulative toxicity was observed”, the “grade 3 QTc prolongation” value is “One patient” and the safety profile entry was “acceptable safety profile”. Moreover, the “deaths attributed to the study treatment” value in series [2] (three patients died during the study because of disease progression) is “none”. The “effect of sex, age, weight, body mass index, or body surface area on PK profile” value in series [3] (data not shown) is “not significantly affected”. For the same compound, in series [3] (human, plasma, iv, 300 mg), the AUC(0-inf) stood at 5470 ng·h/mL, the Cmax came to 253 ng/mL, the MRT turned out to be 136 h and the Vd amounted to 7470 L. In series [3] (human, plasma, iv, 300 mg), this compound had a clearance of 914 mL/min and a half-life of 150 h. Further, the time of peak concentration (Tmax) in series [3] (human, plasma, iv, 300 mg, Median) was ~2 h. In addition, the Tmax in series [3] (human, plasma, iv, 300 mg, Range) is 1.53 to 4.17 h. Also, the PK behavior result in series [3] (plasma concentration-time course) is “multiexponential PK behavior”. Besides, the “mitotic arrest and apoptosis in UC cells” value in the series with UC cell lines was “promote mitotic arrest and apoptosis”. The “proliferation of multiple UC cell lines” value in the series on UC cell lines (ref data on file, Boehringer Ingelheim) is recorded as “inhibited the proliferation”. In addition, the maximum tolerated dose in the series with solid tumors (dose-escalation clinical phase 1 trial) was 400 mg. In the series with solid tumors (in vivo, iv), the “recommended dose for phase 2 trials” value is on record as 300 mg. The “tumor response in phase 1 trials” value in the series with solid tumors (patients with heavily pretreated, metastatic UC) is recorded as “partial responses”.

gemcitabine plus cisplatin [GC]: in the series with metastatic UC, the “long-term progression-free survival (PFS)” value is on record as 9.8%, the “complete response (CR) rate” value was “approximately 12%”, the “median overall survival (mOS)” value is reported as 13.8 months and the overall response rate was 49%.

On to `Cc1ccc(Nc2nccc(N(C)c3ccc4c(C)n(C)nc4c3)n2)cc1S(N)(=O)=O` [pazopanib], for which the “antitumor activity in nonrandomized phase 2 trials” value with urothelial cancer is on record as “modest activity”.

The record behind these values is paper PMC4696031 (Cancer, 2013).
